From US20210236664A1, “ALPHA PARTICLE FORMULATIONS FOR TREATMENT OF SOLID TUMORS” (The Johns Hopkins University, priority 2018, published 2021)

What was measured:
[1] = test system: Hep G2 tumor; assay: Tumor retention after intra-tumoral injection in hepatocellular carcinoma mouse model; type: in vivo, mice; conditions: n=3
Protocol: ^111In-DOTA-tetradecylamine(TDA) was synthesized with a radiolabeling yield >95%. The retention of ^111In-DOTA-TDA within a hepatocellular carcinoma mouse model was evaluated; Hep G2 tumor-bearing SCID mice (24 hours, n=3) and NCG mice (48 hours, n=3) following intra-tumoral injections of ^111In-DOTA-TDA alone or as a Lipiodol emulsion (FIG. 6).

[2] = Octanol partition coefficient
Text: Partition coefficients will be as previously described with some minor modifications. Decristoforo, C., et al., 2008. Octanol and saline (pH=7.4) will be used to assess the […] of the proposed compounds. Briefly, the radiolabeled ^111In- and ^225Ac-labeled DOTA(GA)-alkyl chelates will be vortexed with octanol and saline then centrifuged to separate layers. Aliquots (3) from each layer will be removed and counted. The […] will be determined using the following equations:
Poct/saline=Log([activity]octanol/[activity]saline).
A greater than 95% purity was obtained following purification with a Seppak.

[3] = test system: castration resistant prostate cancer; conditions: castration resistant prostate cancer patients; cited from earlier work
[4] = test system: bladder cancer; conditions: survive >300 d following treatment; cited from earlier work

Molecule: ^111In-DOTA-tetradecylamine [^111In-DOTA-TDA]
- uptake within the tumor ([1]; 24 hours, Hep G2 tumor-bearing SCID mice): 103±65.0 % ID/g
- uptake within the tumor ([1]; 48 hours, Hep G2 tumor-bearing NCG mice): 20.0±15.9 % ID/g
- Log Poct [2]: 1.57±0.005

Molecule: [Cl][223Ra][Cl] [XOFIGO®, Radium-223 Dichloride]
- increased survival benefit [3]: 2.8 month

Molecule: CO[C@@]12[C@H](COC(N)=O)C3=C(C(=O)C(C)=C(N)C3=O)N1C[C@@H]1N[C@@H]12 [mitomycin C]
- survival of mice [4]: 40%
